Numbered stars: 1 amine (or outer) side, 2 acyl side, 3 side chain; on linkers, the order of the positions; unused ones are H or OH. Square brackets hold non-standard residues; d marks the D form. Peptide text beside a SMILES is read from it. X1 = C[C@@H](O)[C@H](N[*:1])C(=O)NC(=O)[*:2]
Assays:
Type in all cases: cell-based
[1] = target: Integrin alpha-V/beta-5 (Homo sapiens, UniProt P06756+P18084); experiment: Antagonist activity at integrin alphaVbeta5 (unknown origin) expressed in HT-29 cells assessed as reduction in cell adhesion to vitronectin after 2 hrs by MTT assay
Chain of Integrin alpha-V/beta-5 (P06756 31-889 limits assumed): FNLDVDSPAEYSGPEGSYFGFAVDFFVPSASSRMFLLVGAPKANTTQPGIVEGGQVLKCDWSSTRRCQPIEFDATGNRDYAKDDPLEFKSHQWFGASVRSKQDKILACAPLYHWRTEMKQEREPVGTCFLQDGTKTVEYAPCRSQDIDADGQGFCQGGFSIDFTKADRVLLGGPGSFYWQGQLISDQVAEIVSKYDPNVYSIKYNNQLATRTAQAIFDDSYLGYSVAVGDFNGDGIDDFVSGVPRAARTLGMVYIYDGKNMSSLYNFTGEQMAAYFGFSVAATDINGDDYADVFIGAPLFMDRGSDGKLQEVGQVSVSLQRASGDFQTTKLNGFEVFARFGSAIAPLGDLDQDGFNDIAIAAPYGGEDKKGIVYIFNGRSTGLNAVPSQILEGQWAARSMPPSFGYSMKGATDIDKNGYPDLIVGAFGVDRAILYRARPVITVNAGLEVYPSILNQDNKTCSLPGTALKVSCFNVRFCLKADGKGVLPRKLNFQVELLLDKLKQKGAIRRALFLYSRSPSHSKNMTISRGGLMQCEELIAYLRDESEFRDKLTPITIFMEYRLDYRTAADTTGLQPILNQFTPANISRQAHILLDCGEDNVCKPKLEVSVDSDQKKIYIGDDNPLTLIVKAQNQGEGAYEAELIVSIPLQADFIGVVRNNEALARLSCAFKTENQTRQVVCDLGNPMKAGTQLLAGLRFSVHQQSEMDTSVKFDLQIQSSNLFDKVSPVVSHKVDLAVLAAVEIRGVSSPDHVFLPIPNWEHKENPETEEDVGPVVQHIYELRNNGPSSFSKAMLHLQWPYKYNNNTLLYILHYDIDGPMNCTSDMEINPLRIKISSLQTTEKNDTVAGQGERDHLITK
Chain of Integrin alpha-V/beta-5 (P06756 891-1048 limits assumed): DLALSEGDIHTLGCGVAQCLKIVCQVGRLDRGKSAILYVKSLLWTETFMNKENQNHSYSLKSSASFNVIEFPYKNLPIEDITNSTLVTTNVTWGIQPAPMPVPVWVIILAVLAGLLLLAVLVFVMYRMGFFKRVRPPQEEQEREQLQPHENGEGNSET
Chain of Integrin alpha-V/beta-5 (P18084 24-799 limits assumed): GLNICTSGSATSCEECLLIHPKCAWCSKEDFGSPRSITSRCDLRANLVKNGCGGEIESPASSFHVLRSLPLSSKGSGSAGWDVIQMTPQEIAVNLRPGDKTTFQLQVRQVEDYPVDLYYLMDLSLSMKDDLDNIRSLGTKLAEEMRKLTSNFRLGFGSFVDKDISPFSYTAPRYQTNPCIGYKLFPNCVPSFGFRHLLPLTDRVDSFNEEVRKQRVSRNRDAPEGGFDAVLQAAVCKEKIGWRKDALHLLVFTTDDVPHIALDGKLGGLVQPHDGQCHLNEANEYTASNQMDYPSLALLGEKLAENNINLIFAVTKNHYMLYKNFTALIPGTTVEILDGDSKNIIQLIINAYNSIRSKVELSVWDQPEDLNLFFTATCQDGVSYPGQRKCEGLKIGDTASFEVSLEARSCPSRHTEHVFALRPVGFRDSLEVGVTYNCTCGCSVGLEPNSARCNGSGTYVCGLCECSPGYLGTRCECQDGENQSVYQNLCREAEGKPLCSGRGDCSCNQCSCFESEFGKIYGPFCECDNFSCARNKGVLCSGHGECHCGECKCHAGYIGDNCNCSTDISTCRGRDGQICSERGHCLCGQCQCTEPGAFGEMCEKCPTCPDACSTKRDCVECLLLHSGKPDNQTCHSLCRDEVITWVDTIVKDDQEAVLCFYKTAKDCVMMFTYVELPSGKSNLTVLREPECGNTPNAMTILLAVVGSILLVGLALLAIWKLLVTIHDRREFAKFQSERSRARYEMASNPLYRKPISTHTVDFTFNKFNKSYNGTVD

[2] = target: Integrin alpha-V/beta-3 (Homo sapiens, UniProt P05106+P06756); experiment: Antagonist activity at integrin alphaVbeta3 (unknown origin) expressed in HEK293 cells assessed as reduction in cell adhesion to fibrinogen after 2 hrs by MTT assay
Chain of Integrin alpha-V/beta-3 (P05106 27-788 limits assumed): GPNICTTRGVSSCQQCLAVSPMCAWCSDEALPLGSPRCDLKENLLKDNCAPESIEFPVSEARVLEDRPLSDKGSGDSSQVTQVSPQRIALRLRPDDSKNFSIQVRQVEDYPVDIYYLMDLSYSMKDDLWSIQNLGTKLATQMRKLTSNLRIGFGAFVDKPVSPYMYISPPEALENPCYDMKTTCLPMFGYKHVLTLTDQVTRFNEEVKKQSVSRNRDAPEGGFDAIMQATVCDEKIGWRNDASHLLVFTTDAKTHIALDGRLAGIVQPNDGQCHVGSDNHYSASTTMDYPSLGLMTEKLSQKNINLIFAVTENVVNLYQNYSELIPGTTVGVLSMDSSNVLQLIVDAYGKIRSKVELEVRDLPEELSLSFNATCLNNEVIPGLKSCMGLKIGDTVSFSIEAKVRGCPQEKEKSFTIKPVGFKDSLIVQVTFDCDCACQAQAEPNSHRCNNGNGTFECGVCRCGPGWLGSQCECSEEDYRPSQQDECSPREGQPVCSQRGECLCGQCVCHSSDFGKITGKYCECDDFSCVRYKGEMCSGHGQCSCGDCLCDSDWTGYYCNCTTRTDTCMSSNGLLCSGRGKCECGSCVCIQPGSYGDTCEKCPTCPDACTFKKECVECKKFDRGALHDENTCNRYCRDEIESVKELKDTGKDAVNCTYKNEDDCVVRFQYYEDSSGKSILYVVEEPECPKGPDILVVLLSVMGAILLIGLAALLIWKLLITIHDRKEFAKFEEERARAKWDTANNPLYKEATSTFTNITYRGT
Chain of Integrin alpha-V/beta-3 (P06756 31-889 limits assumed): as the sequence (P06756 31-889 limits assumed) above
Chain of Integrin alpha-V/beta-3 (P06756 891-1048 limits assumed): as the sequence (P06756 891-1048 limits assumed) above

[3] = target: Integrin alpha-V/beta-3/alpha-V/beta-5 (Homo sapiens, UniProt P05106+P06756+P18084); experiment: Antagonist activity at integrin alphaVbeta3alphaVbeta5 (unknown origin) expressed in SKOV3 cells assessed as reduction in cell adhesion to fibrinogen after 2 hrs by MTT assay
Chain of Integrin alpha-V/beta-3/alpha-V/beta-5 (P05106 27-788 limits assumed): as the sequence (P05106 27-788 limits assumed) above
Chain of Integrin alpha-V/beta-3/alpha-V/beta-5 (P06756 31-889 limits assumed): as the sequence (P06756 31-889 limits assumed) above
Chain of Integrin alpha-V/beta-3/alpha-V/beta-5 (P06756 891-1048 limits assumed): as the sequence (P06756 891-1048 limits assumed) above
Chain of Integrin alpha-V/beta-3/alpha-V/beta-5 (P18084 24-799 limits assumed): as the sequence (P18084 24-799 limits assumed) above

[4] = species: Homo sapiens; experiment: Selectivity ratio of IC50 for integrin alphaVbeta5 (unknown origin) expressed in HT-29 cells to IC50 for integrin alphaVbeta3alphaVbeta5 (unknown origin) expressed in SKOV3 cells
[5] = species: Homo sapiens; experiment: Selectivity ratio of IC50 for integrin alphaVbeta5 (unknown origin) expressed in HT-29 cells to IC50 for integrin alphaVbeta3 (unknown origin) expressed in HEK293 cells

Row | Molecule | IC50 [1] [µM] | IC50 [2] [µM] | IC50 [3] [µM] | Ratio IC50 [4] | Ratio IC50 [5]
1 | CC(C)C[C@@H]1NC(=O)[C@H](CC(=O)O)NC(=O)CNC(=O)[C@H](CCCNC(=N)N)NC(=O)[C@H](CC(=O)O)NC(=O)CNC(=O)[C@H](CCCNC(=N)N)NC(=O)[C@H](CC(=O)O)NC(=O)CNC(=O)[C@H](CCCNC(=N)N)NC(=O)CNC(=O)[C@H]([C@@H](C)O)NC(=O)[C@H](CCC(=O)O)NC(=O)[C@@H]2CCCN2C1=O (cyclo(RGDLPETGRGDRGD)) | 380 | 257 | 136 | – | –
2 | H-GGGGGGGRGDLPETGGS-OH | 2950 | 171 | 102 | – | –
3 | H-GGGGRGDRGDLPETGGS-OH | 1730 | 33 | 4 | > 400 | > 50
4 | H-RGDRGD-OH | 546 | 619 | 753 | – | –

The next lines start with results.

Row | IC50 [1] [µM] | IC50 [2] [µM] | IC50 [3] [µM] | Molecule | Ratio IC50 [4] | Ratio IC50 [5]
5 | 26 | 48.8 | 26 | CC(C)C[C@@H]1NC(=O)[C@H](CC(=O)O)NC(=O)CNC(=O)[C@H](CCCNC(=N)N)NC(=O)[C@H](CC(=O)O)NC(=O)CNC(=O)[C@H](CCCNC(=N)N)NC(=O)CNC(=O)CNC(=O)CNC(=O)CNC(=O)[C@H]([C@@H](C)O)NC(=O)[C@H](CCC(=O)O)NC(=O)[C@@H]2CCCN2C1=O (cyclo(RGDLPETGGGGRGD)) | – | –
6 | 522 | 7.2 | 19 | CC(C)C[C@@H]1NC(=O)[C@H](CC(=O)O)NC(=O)CNC(=O)[C@H](CCCNC(=N)N)NC(=O)CNC(=O)CNC(=O)CNC(=O)CNC(=O)CNC(=O)CNC(=O)CNC(=O)NC(=O)[C@H]([C@@H](C)O)NC(=O)[C@H](CCC(=O)O)NC(=O)[C@@H]2CCCN2C1=O (cyclo(RGDLPE[X1]GGGGGGG)) | – | –
7 | 25 | 152 | 74 | H-GRGDRGDRGDLPETGGS-OH | – | –

— ChEMBL document CHEMBL4014304, “New potent and selective αvβ3 integrin ligands: Macrocyclic peptides containing RGD motif synthesized by sortase A-mediated ligation” (Bioorg Med Chem Lett, 2017)
